Data from ChEMBL document CHEMBL3832761, “MMV Pathogen Box Bioactivity Data” (2017).
Converted amounts (≈) assume the structure as drawn.

Experiments:
Type in all cases: functional
[1] = system: Mycobacterium tuberculosis; test: AntiMycobacterium tuberculosis activity Replicating form: Average MIC90 (uM)
[2] = system: Mycobacterium tuberculosis; test: AntiMycobacterium tuberculosis activity day 21 MIC99 in 7H9/2.5mM butyrate/pH6/0.1mM nitrite MIC99 (uM); conditions: 504 h
[3] = system: Mycobacterium tuberculosis; test: AntiMycobacterium tuberculosis activity 2-week Alamar Blue 7H9/cholesterol/BSA/Tx MIC (uM); conditions: 336 h
[4] = system: Mycobacterium tuberculosis; test: AntiMycobacterium tuberculosis activity Non-Replicating form: Average MIC90 (uM)
[5] = system: Mycobacterium tuberculosis; test: AntiMycobacterium tuberculosis activity 1-week 7H9/ADC/Tw MIC (uM); conditions: 168 h
[6] = system: Mycobacterium tuberculosis; test: (§1) AntiMycobacterium tuberculosis activity day 10 in 7H9/2.5mM butyrate/pH6/0.1mM nitrite MIC90 (uM); conditions: 240 h
HepG2 = test: HepG2 CC50 (uM) Cytotoxicity; conditions: Homo sapiens
[7] = system: Mycobacterium tuberculosis; test: AntiMycobacterium tuberculosis activity 2-week 7H9/DPPC/cholesterol/BSA/Tx MIC (uM); conditions: 336 h
[8] = system: Mycobacterium tuberculosis; test: AntiMycobacterium tuberculosis activity day 21 in 7H9/2.5mM butyrate/pH6/0.1mM nitrite MIC90 (uM); conditions: 504 h
[9] = system: Mycobacterium tuberculosis; test: AntiMycobacterium tuberculosis activity 1-week 7H9/glucose/BSA/Tx MIC (uM); conditions: 168 h
[10] = system: Mycobacterium tuberculosis; test: AntiMycobacterium tuberculosis activity 2-week GAST/Fe MIC (uM); conditions: 336 h
[11] = system: Mycobacterium tuberculosis; test: AntiMycobacterium tuberculosis activity 2-week 7H9/ADC/Tw MIC (uM); conditions: 336 h
[12] = system: Mycobacterium tuberculosis; test: AntiMycobacterium tuberculosis activity 1-week 7H9/DPPC/cholesterol/BSA/Tx MIC (uM); conditions: 168 h
[13] = system: Mycobacterium tuberculosis; test: AntiMycobacterium tuberculosis activity 1-week GAST/Fe MIC (uM); conditions: 168 h
[14] = system: Mycobacterium tuberculosis; test: as §1; conditions: 240 h; remark: listed apart in the source
[15] = system: Mycobacterium tuberculosis; test: AntiMycobacterium tuberculosis activity 1-week 7H9/cholesterol/BSA/Tx MIC (uM); conditions: 168 h
[16] = system: Mycobacterium tuberculosis; test: AntiMycobacterium tuberculosis activity 2-week Alamar Blue 7H9/ADC/Tw MIC (uM); conditions: 336 h
[17] = system: Mycobacterium tuberculosis; test: AntiMycobacterium tuberculosis activity 2-week 7H9/glucose/BSA/Tx MIC (uM); conditions: 336 h

Nc1ncnc2c1ncn2[C@@H]1O[C@H](COS(=O)(=O)NC(=O)c2ccccc2O)[C@@H](O)[C@H]1O
MIC90 [1]: > 100 µM
MIC [2]: > 50 µM
MIC [3]: > 50 µM
MIC90 [4]: > 100 µM
MIC [5]: > 50 µM
MIC90 [6]: > 50 µM
CC50 (HepG2): > 100 µM
MIC [7]: > 50 µM
MIC90 [8]: > 50 µM
MIC [9]: > 50 µM
MIC [10]: 0.6 µM (≈ 0.28 µg/mL)
MIC [11]: > 50 µM
MIC [12]: > 50 µM
MIC [13]: 0.3 µM (≈ 0.14 µg/mL)
MIC90 [14]: > 50 µM
MIC [15]: > 50 µM
MIC [16]: 9.4 µM (≈ 4.38 µg/mL)
MIC [17]: > 50 µM

N#Cc1nc(-c2ccccc2)oc1S(=O)(=O)c1ccc(Cl)cc1
MIC90 [1]: 2.59 µM (≈ 0.893 µg/mL)
MIC [2]: > 50 µM
MIC [3]: 12.5 µM (≈ 4.31 µg/mL)
MIC90 [4]: 0.41 µM (≈ 0.141 µg/mL)
MIC [5]: 3.13 µM (≈ 1.08 µg/mL)
MIC90 [6]: 6.25 µM (≈ 2.15 µg/mL)
CC50 (HepG2): 2.2 µM
MIC [7]: 12.5 µM (≈ 4.31 µg/mL)
MIC90 [8]: 12.5 µM (≈ 4.31 µg/mL)
MIC [9]: 3.13 µM (≈ 1.08 µg/mL)
MIC [10]: 0.6 µM (≈ 0.207 µg/mL)
MIC [11]: 6.25 µM (≈ 2.15 µg/mL)
MIC [12]: 6.25 µM (≈ 2.15 µg/mL)
MIC [13]: 0.6 µM (≈ 0.207 µg/mL)
MIC90 [14]: > 50 µM
MIC [15]: 6.25 µM (≈ 2.15 µg/mL)
MIC [16]: 6.25 µM (≈ 2.15 µg/mL)
MIC [17]: 6.25 µM (≈ 2.15 µg/mL)

Cc1ccc2oc(-c3cc(NC(=O)Cc4ccccc4)ccc3Cl)nc2c1
MIC90 [1]: 3.58 µM (≈ 1.35 µg/mL)
MIC [2]: > 50 µM
MIC [3]: 25 µM (≈ 9.42 µg/mL)
MIC90 [4]: > 100 µM
MIC [5]: 25 µM (≈ 9.42 µg/mL)
MIC90 [6]: > 50 µM
CC50 (HepG2): 83.6 µM
MIC [7]: 12.5 µM (≈ 4.71 µg/mL)
MIC90 [8]: > 50 µM
MIC [9]: 25 µM (≈ 9.42 µg/mL)
MIC [10]: 9.4 µM (≈ 3.54 µg/mL)
MIC [11]: 25 µM (≈ 9.42 µg/mL)
MIC [12]: 12.5 µM (≈ 4.71 µg/mL)
MIC [13]: 6.25 µM (≈ 2.36 µg/mL)
MIC90 [14]: > 50 µM
MIC [15]: 25 µM (≈ 9.42 µg/mL)
MIC [16]: 25 µM (≈ 9.42 µg/mL)
MIC [17]: 25 µM (≈ 9.42 µg/mL)

Cc1cc(C)cc(COc2ccc3c(C)c(CCC(=O)O)c(=O)oc3c2C)c1
MIC90 [1]: > 100 µM
MIC [2]: > 50 µM
MIC [3]: > 50 µM
MIC90 [4]: > 100 µM
MIC [5]: > 50 µM
MIC90 [6]: > 50 µM
CC50 (HepG2): > 100 µM
MIC [7]: 50 µM (≈ 19 µg/mL)
MIC90 [8]: > 50 µM
MIC [9]: > 50 µM
MIC [10]: 9.4 µM (≈ 3.58 µg/mL)
MIC [11]: > 50 µM
MIC [12]: 50 µM (≈ 19 µg/mL)
MIC [13]: 6.25 µM (≈ 2.38 µg/mL)
MIC90 [14]: > 50 µM
MIC [15]: > 50 µM
MIC [16]: > 50 µM
MIC [17]: > 50 µM

NC(CC(=O)c1ccc(Cl)cc1Cl)C(Cl)(Cl)Cl (configuration not stated)
MIC90 [1]: 17.4 µM (≈ 5.83 µg/mL)
MIC [2]: > 50 µM
MIC [3]: 25 µM (≈ 8.39 µg/mL)
MIC90 [4]: 6.04 µM (≈ 2.03 µg/mL)
MIC [5]: 12.5 µM (≈ 4.19 µg/mL)
MIC90 [6]: 12.5 µM (≈ 4.19 µg/mL)
CC50 (HepG2): 37.9 µM
MIC [7]: 50 µM (≈ 16.8 µg/mL)
MIC90 [8]: 12.5 µM (≈ 4.19 µg/mL)
MIC [9]: 19 µM (≈ 6.37 µg/mL)
MIC [10]: 0.6 µM (≈ 0.201 µg/mL)
MIC [11]: 12.5 µM (≈ 4.19 µg/mL)
MIC [12]: 37 µM (≈ 12.4 µg/mL)
MIC [13]: 0.39 µM (≈ 0.131 µg/mL)
MIC90 [14]: > 50 µM
MIC [15]: 19 µM (≈ 6.37 µg/mL)
MIC [16]: 12.5 µM (≈ 4.19 µg/mL)
MIC [17]: 25 µM (≈ 8.39 µg/mL)

CCCCOC(=O)Nc1cc2nc(C3CCCCC3)[nH]c2cc1N1CCCC1
MIC90 [1]: 0.3 µM (≈ 0.115 µg/mL)
MIC [2]: 0.78 µM (≈ 0.3 µg/mL)
MIC [3]: 0.2 µM (≈ 0.0769 µg/mL)
MIC90 [4]: 97.3 µM (≈ 37.4 µg/mL)
MIC [5]: 0.05 µM (≈ 0.0192 µg/mL)
MIC90 [6]: 0.39 µM (≈ 0.15 µg/mL)
CC50 (HepG2): 26.8 µM
MIC [7]: 0.2 µM (≈ 0.0769 µg/mL)
MIC90 [8]: 0.78 µM (≈ 0.3 µg/mL)
MIC [9]: 0.2 µM (≈ 0.0769 µg/mL)
MIC [10]: 0.15 µM (≈ 0.0577 µg/mL)
MIC [11]: 0.2 µM (≈ 0.0769 µg/mL)
MIC [12]: 0.15 µM (≈ 0.0577 µg/mL)
MIC [13]: 0.1 µM (≈ 0.0385 µg/mL)
MIC90 [14]: 0.78 µM (≈ 0.3 µg/mL)
MIC [15]: 0.1 µM (≈ 0.0385 µg/mL)
MIC [16]: 0.2 µM (≈ 0.0769 µg/mL)
MIC [17]: 0.39 µM (≈ 0.15 µg/mL)

COc1ccc(-c2nc(-c3cccc(NC(=O)Cc4ccc(F)cc4)c3)no2)cc1OC
MIC90 [1]: 0.39 µM (≈ 0.169 µg/mL)
MIC [2]: 6.25 µM (≈ 2.71 µg/mL)
MIC [3]: 0.6 µM (≈ 0.26 µg/mL)
MIC90 [4]: 1.61 µM (≈ 0.698 µg/mL)
MIC [5]: 0.3 µM (≈ 0.13 µg/mL)
MIC90 [6]: 3.12 µM (≈ 1.35 µg/mL)
CC50 (HepG2): > 100 µM
MIC [7]: 0.78 µM (≈ 0.338 µg/mL)
MIC90 [8]: 6.25 µM (≈ 2.71 µg/mL)
MIC [9]: 0.2 µM (≈ 0.0867 µg/mL)
MIC [10]: 1.56 µM (≈ 0.676 µg/mL)
MIC [11]: 0.39 µM (≈ 0.169 µg/mL)
MIC [12]: 0.78 µM (≈ 0.338 µg/mL)
MIC [13]: 1.56 µM (≈ 0.676 µg/mL)
MIC90 [14]: 3.12 µM (≈ 1.35 µg/mL)
MIC [15]: 0.6 µM (≈ 0.26 µg/mL)
MIC [16]: 0.39 µM (≈ 0.169 µg/mL)
MIC [17]: 0.2 µM (≈ 0.0867 µg/mL)

COC(=O)c1c(NC(=O)c2c(F)c(F)c(F)c(F)c2F)sc2c1CCCCC2
MIC90 [1]: 0.86 µM (≈ 0.361 µg/mL)
MIC [2]: 3.1 µM (≈ 1.3 µg/mL)
MIC [3]: 1.56 µM (≈ 0.654 µg/mL)
MIC90 [4]: 3.8 µM (≈ 1.59 µg/mL)
MIC [5]: 1.2 µM (≈ 0.503 µg/mL)
MIC90 [6]: 1.5 µM (≈ 0.629 µg/mL)
CC50 (HepG2): 7.5 µM
MIC [7]: 1.56 µM (≈ 0.654 µg/mL)
MIC90 [8]: 3.1 µM (≈ 1.3 µg/mL)
MIC [9]: 0.78 µM (≈ 0.327 µg/mL)
MIC [10]: 0.78 µM (≈ 0.327 µg/mL)
MIC [11]: 2.3 µM (≈ 0.965 µg/mL)
MIC [12]: 0.6 µM (≈ 0.252 µg/mL)
MIC [13]: 0.78 µM (≈ 0.327 µg/mL)
MIC90 [14]: 3.1 µM (≈ 1.3 µg/mL)
MIC [15]: 0.6 µM (≈ 0.252 µg/mL)
MIC [16]: 1.56 µM (≈ 0.654 µg/mL)
MIC [17]: 1.2 µM (≈ 0.503 µg/mL)

COc1cccc(OCC(=O)c2ccc(Br)cc2)c1
MIC90 [1]: > 100 µM
MIC [2]: 50 µM (≈ 16.1 µg/mL)
MIC [3]: 50 µM (≈ 16.1 µg/mL)
MIC90 [4]: > 100 µM
MIC [5]: 19 µM (≈ 6.1 µg/mL)
MIC90 [6]: 12.5 µM (≈ 4.01 µg/mL)
CC50 (HepG2): > 100 µM
MIC [7]: 50 µM (≈ 16.1 µg/mL)
MIC90 [8]: 25 µM (≈ 8.03 µg/mL)
MIC [9]: 19 µM (≈ 6.1 µg/mL)
MIC [10]: 9.4 µM (≈ 3.02 µg/mL)
MIC [11]: 50 µM (≈ 16.1 µg/mL)
MIC [12]: 19 µM (≈ 6.1 µg/mL)
MIC [13]: 9.4 µM (≈ 3.02 µg/mL)
MIC90 [14]: 25 µM (≈ 8.03 µg/mL)
MIC [15]: 12.5 µM (≈ 4.01 µg/mL)
MIC [16]: 25 µM (≈ 8.03 µg/mL)
MIC [17]: 50 µM (≈ 16.1 µg/mL)
